Experimental data published in patent publication US6706716B2, “Compounds specific for the human α1d adrenergic receptor and uses thereof” (Synaptic Pharmaceutical Corporation, priority 1998, dated 2004).

What was measured:
[1] = system: urethane-anesthetized rats; assay: Blood pressure in urethane-anesthetized, normotensive rats; assay type: in vivo, rat
Procedure: Rats were anesthetized with urethane and PE50 cannulae were placed in the femoral artery and vein for blood pressure monitoring and drug administration, respectively. After stabilization, rats were administered 200 μl saline vehicle or increasing doses of BMY 7378 or Compound 7 at 10 minutes intervals until the reduction in blood pressure reached a plateau. The 5-HT1A-selective antagonist WAY 100635 (1 mg/kg) was then administered and blood pressure monitored for an additional 10 minutes.

[2] = molecular target: T1, human α1d adrenergic receptor (Homo sapiens, UniProt P25100); assay: Radioligand binding ([3H]prazosin) at cloned human α1d adrenergic receptor; conditions: LM(tk-) cell membranes, read-out: Binding affinities (pKi) α1d (converted)
T1 construct: The entire coding region. of α1d (1719 bp); expressed in transfected cells
T1 sequence (P25100 1-572): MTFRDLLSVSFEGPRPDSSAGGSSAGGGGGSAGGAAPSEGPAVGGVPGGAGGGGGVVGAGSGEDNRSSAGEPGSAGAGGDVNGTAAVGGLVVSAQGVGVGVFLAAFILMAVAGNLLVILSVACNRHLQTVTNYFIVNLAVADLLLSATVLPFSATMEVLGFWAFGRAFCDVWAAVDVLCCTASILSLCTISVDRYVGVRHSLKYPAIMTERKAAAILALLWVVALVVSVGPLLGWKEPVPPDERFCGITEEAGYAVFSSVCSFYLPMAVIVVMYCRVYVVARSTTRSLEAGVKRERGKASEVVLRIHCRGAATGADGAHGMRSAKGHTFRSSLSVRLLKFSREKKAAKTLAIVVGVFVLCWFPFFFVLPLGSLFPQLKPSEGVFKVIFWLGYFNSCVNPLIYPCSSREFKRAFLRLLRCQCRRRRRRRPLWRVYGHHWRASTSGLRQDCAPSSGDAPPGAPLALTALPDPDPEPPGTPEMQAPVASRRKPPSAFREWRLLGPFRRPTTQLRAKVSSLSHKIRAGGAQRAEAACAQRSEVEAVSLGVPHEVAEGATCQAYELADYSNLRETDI
Procedure: (§1) First, conditions were determined which allowed measurement of the specific binding of a compound known to bind to the receptor. Then, the binding of the known compound to the receptor in membrane preparations was evaluated in the presence of several different concentrations of the test compound.
(§2) These cell lines were prepared by transfecting the cloned cDNA or cloned genomic DNA or constructs containing both genomic DNA and cDNA encoding the human receptors as described below.
α1d Human Adrenergic Receptor: The entire coding region. of α1d (1719 bp), including 150 base pairs of 5′ untranslated sequence (5′ UT) and 300 bp of 3′ untranslated sequence (3′ UT), was cloned into the BamHI and ClaI sites of the polylinker-modified eukaryotic expression vector pCEXV-3, called EXJ.HR. The construct involved the ligation of partial overlapping human lymphocyte genomic and hippocampal cDNA clones: 5′ sequence were contained on a 1.2 kb SmaI-XhoI genomic fragment (the vector-derived BamHI site was used for subcloning instead of the internal insert-derived SmaI site) and 3′ sequences were contained on a 1.3 kb XhoI-ClaI cDNA fragment (the ClaI site was from the vector polylinker). Stable cell lines were obtained by cotransfection with the plasmid α1A/EXJ (expression vector containing the α1a receptor gene (old nomenclature)) and the plasmid pGCcos3neo (plasmid containing the aminoglycoside transferase gene) into LM(tk-) cells using the calcium phosphate technique. The cells were grown, in a controlled environment (37° C., 5% CO2), as monolayers in Dulbecco's modified Eagle's Medium (GIBCO, Grand Island, N.Y.) containing 25 mM glucose and supplemented with 10% bovine calf serum, 100 units/ml penicillin g, and 100 μg/ml streptomycin sulfate. Stable clones were then selected for resistance to the antibiotic G-418 (1 mg/ml), and membranes were harvested and assayed for their ability to bind [^3H]prazosin as described below (see Radioligand Binding assays).
The cell line expressing the human α1d receptor used herein was designated L-α1A (old nomenclature) and was deposited with the American Type Culture Collection, 12301 Parklawn Drive, Rockville, Md. 20852, U.S.A. under the provisions of the Budapest Treaty for the International Recognition of the Deposit of Microorganisms for the Purposes of Patent Procedure. The cell line expressing the human α1d receptor, was accorded ATCC Accession No. CRL 11138, and was deposited on Sep. 25, 1992.
(§3) Radioligand Binding Assays for α1 Human Adrenergic Receptors: Transfected cells from culture flasks were scraped into 5 ml of 5 mM Tris-HCl, 5 mM EDTA, pH 7.5, and lysed by sonication. The cell lysates were centrifuged at 1000 rpm for 5 min at 4° C., and the supernatant was centrifuged at 30,000×g for 20 min at 4° C. The pellet was suspended in 50 mM Tris-HCl, 1 mM MgCl2, and 0.1% ascorbic acid at pH 7.5. Binding of the α1, antagonist [^3H]prazosin (0.5 nM, specific activity 76.2 Ci/mmol) to membrane preparations of LM(tk-) cells was done in a final volume of 0.25 ml and incubated at 37° C. for 1 hour. Nonspecific binding was determined in the presence of 10 μM phentolamine. The reaction was stopped by filtration through GF/B filters using a cell harvester.

[3] = molecular target: T2, human α1a adrenergic receptor (Homo sapiens, UniProt P35348); assay: Radioligand binding ([3H]prazosin) at cloned human α1a adrenergic receptor; conditions: LM(tk-) cell membranes, read-out: Binding affinities (pKi) α1a (converted)
T2 construct: The entire coding region of α1a (1401 bp); expressed in transfected cells
T2 sequence (P35348 1-466): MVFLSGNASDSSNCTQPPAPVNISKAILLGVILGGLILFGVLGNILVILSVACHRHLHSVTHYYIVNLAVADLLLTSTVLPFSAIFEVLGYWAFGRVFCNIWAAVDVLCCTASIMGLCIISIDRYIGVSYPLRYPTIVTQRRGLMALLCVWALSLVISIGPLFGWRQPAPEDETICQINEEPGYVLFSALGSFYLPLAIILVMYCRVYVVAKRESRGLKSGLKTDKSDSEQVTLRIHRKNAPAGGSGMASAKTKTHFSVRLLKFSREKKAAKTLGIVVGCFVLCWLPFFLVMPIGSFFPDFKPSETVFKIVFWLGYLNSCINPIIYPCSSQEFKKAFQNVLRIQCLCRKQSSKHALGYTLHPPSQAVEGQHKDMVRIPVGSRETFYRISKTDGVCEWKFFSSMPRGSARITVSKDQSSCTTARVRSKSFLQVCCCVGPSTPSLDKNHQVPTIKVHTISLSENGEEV
Procedure: as §1, §2
The construct involved ligating three partial overlapping fragments: a 5′0.6 kb HincII genomic clone, a central 1.8 EcoRI hippocampal cDNA clone, and a 3′0.6 Kb PstI genomic clone. The hippocampal cDNA fragment overlaps with the 5′ and 3′ genomic clones so that the HincII and PstI sites at the 5′ and 3′ ends of the cDNA clone, respectively, were utilized for ligation. This full-length clone was cloned into the KpnI site of the expression vector, using the 5′ and 3′ KpnI sites of the fragment, derived from vector (i.e., pBluescript) and 3′-untranslated sequences, respectively. Stable cell lines were selected as described above. Membranes were harvested and assayed for their ability to bind [^3H]prazosin as described below (see Radioligand Binding assays).
as §3

[4] = molecular target: T3, human α1b adrenergic receptor (Homo sapiens, UniProt P35368); assay: Radioligand binding ([3H]prazosin) at cloned human α1b adrenergic receptor; conditions: LM(tk-) cell membranes, read-out: Binding affinities (pKi) α1b (converted)
T3 construct: The entire coding region of α1b (1563 bp); expressed in transfected cells
T3 sequence (P35368 1-520): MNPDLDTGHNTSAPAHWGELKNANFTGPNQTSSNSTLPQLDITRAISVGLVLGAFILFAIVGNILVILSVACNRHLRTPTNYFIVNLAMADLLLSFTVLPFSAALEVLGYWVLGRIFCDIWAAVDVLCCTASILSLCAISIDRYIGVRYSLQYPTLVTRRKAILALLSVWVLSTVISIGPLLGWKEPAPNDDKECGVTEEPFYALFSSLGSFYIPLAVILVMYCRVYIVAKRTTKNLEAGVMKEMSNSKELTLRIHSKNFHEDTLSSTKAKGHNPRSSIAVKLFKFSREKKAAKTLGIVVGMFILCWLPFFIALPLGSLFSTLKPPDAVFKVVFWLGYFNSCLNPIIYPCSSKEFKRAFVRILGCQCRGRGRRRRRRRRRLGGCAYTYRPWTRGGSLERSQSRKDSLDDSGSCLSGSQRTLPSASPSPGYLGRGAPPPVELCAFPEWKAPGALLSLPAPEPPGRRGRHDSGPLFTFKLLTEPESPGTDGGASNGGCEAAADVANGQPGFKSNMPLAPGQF
Procedure: as §1, §2
α1b Human Adrenergic Receptor: The entire coding region of α1b (1563 bp), including 200 base pairs of 5′ untranslated sequence (5′ UT) and 600 bp of 3′ untranslated sequence (3′ UT), was cloned into the EcoRI site of pCEXV-3 eukaryotic expression vector. The construct involved ligating the full-length EcoRI brainstem cDNA fragment from λ ZapII into the expression vector. Stable cell lines were selected as described above. Membranes were harvested and assayed for their ability to bind [^3H]prazosin as described below (see Radioligand Binding assays). The cell line used herein was designated L-α1B and was deposited with the American Type Culture Collection, 12301 Parklawn Drive, Rockville, Md. 20852, U.S.A. under the provisions of the Budapest Treaty for the International Recognition of the Deposit of Microorganisms for the Purposes of Patent Procedure. The cell line L-α1B was accorded ATCC Accession No. CR 11139, on Sep. 29, 1992.
as §3

Row | Ki [2] | Ki [3] | Ki [4] | Compound | reversal of the blood pressure effect by WAY 100635 ([1]; 5-HT1A-selective antagonist WAY 100635 1 mg/kg given after plateau) | effect on systolic, diastolic and mean blood pressure ([1]; urethane-anesthetized rats, increasing i.v. doses at 10 min intervals)
1 | – | – | – | COc1ccccc1N1CCN(CCN2C(=O)CC3(CCCC3)CC2=O)CC1 [BMY 7378, reference compound] | reversed | dose-dependent reduction
2 | 1.26 nM | 15800 nM | – | C[C@H](CN1CCN(c2cc(F)c(F)cc2F)CC1)N1C(=O)CC2(CCCC2)CC1=O [Compound 9, 8-{(1R)-2-[4-(2,4,5-Trifluorophenyl)piperazin-1-yl]-1-methylethyl}-8-azaspiro[4.5]decane-7,9-dione] | – | –
3 | 126 nM | 12600 nM | – | C[C@@H](CN1CCN(c2cc(F)c(F)cc2F)CC1)N1C(=O)CC2(CCCC2)CC1=O [Compound 11, 8-{(1S)-2-[4-(2,4,5-Trifluorophenyl)piperazin-1-yl]-1-methylethyl}-8-azaspiro[4.5]decane-7,9-dione] | – | –
4 | 79.4 nM | 7940 nM | – | O=C1CC2(CCCC2)CC(=O)N1[C@@H](CN1CCN(c2cc(F)c(F)cc2F)CC1)c1ccccc1 [Compound 16, 8-{(1R)-1-Phenyl-2-[4-(2,4,5-trifluorophenyl)piperazino]ethyl}-8-azaspiro[4.5]decane-7,9-dione] | – | –
5 | 79.4 nM | 10000 nM | – | O=C1CC2(CCCC2)CC(=O)N1[C@H](Cc1ccccc1)CN1CCN(c2cc(F)c(F)cc2F)CC1 [Compound 17, 8-{(1R)-1-Benzyl-2-[4-(2,4,5-trifluorophenyl)piperazino]ethyl}-8-azaspiro[4.5]decane-7,9-dione] | – | –
6 | – | 631 nM | 63.1 nM | O=C1CC2(CCCC2)CC(=O)N1CCN1CCN(c2ccccc2F)CC1 [Compound 20, 8-{2-[4-(2-Fluorophenyl)piperazin-1-yl]ethyl}-8-azaspiro[4.5]decane-7,9-dione] | – | –
